Measured values from ChEMBL document CHEMBL1773038, “In silico and in vitro validation of serine hydroxymethyltransferase as a chemotherapeutic target of the antifolate drug pemetrexed” (Eur J Med Chem, 2011).

Experiments:
[1] = target: T1, Serine hydroxymethyltransferase, cytosolic (Homo sapiens, UniProt P34896); experiment: Inhibition of human recombinant Serine hydroxymethyltransferase, cytosolic measured by slope intercepts of mixed-type inhibition against compound concentration by spectrophotometry
T1 sequence (P34896 whole entry): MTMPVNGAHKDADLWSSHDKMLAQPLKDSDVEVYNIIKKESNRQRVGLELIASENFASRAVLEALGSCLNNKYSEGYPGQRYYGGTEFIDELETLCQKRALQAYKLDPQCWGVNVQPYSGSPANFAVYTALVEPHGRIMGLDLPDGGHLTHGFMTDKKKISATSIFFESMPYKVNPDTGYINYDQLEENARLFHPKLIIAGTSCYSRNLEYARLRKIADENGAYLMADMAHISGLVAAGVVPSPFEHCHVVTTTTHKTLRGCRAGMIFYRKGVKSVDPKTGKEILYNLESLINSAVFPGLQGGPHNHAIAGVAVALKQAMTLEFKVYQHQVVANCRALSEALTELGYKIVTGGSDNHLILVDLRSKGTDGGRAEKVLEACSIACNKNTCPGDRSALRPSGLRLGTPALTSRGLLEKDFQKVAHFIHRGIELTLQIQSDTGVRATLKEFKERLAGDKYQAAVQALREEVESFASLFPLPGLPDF

[2] = target: T1, Serine hydroxymethyltransferase, cytosolic; experiment: Mixed-type inhibition of human recombinant Serine hydroxymethyltransferase, cytosolic measured by Y-axes intercepts of mixed-type inhibition against compound concentration by spectrophotometry
[3] = target: T1, Serine hydroxymethyltransferase, cytosolic; experiment: Binding affinity to human recombinant Serine hydroxymethyltransferase, cytosolic by isothermal titration calorimetry
[4] = target: T1, Serine hydroxymethyltransferase, cytosolic; experiment: Competitive inhibition of human recombinant Serine hydroxymethyltransferase, cytosolic by spectrophotometry

`Nc1nc2[nH]cc(CCc3ccc(C(=O)N[C@@H](CCC(=O)O)C(=O)O)cc3)c2c(=O)[nH]1` [PEMETREXED] gave a Ki [1] of 33 µM, a Ki [2] of 186 µM and a Kd [3] of 16.9 µM. The Ki [4] was 19.1 µM.
